We go through 43 molecules from patent US8426447B2, “Spiro-tricyclic ring compounds as beta-secretase modulators and methods of use” (Amgen Inc., priority 2008, dated 2013).

Assay [1] has as its target T1, BACE1 (Homo sapiens, UniProt P56817). Kind of assay: In Vitro Enzymatic BACE FRET (Fluorescence Resonance Energy Transfer) Assay. The format is biochemical. The note with it: read-out: BACE1 FRET assay. Put shortly:
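One-hour incubation initiated by 50 nM quenched FRET peptide spanning the BACE cleavage site, in 0.05 M acetate (pH 4.2), 100 uM genapol, 10% DMSO final. Tris addition neutralizes pH to end the reaction before fluorescence measurement.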

The target of assay [2] is T1, BACE1. As to the kind of experiment: In Vitro BACE Cell-based Assay (HEK cell assay): Aβ40 in conditioned medium of cells stably expressing Amyloid Precursor Protein, sandwich ELISA. The note with it: read-out: HEK cell assay. Put shortly:
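HEK cells stably expressing APP were treated 24 h with compound in 10-point dose response starting at 100 or 10 μM (0.1% DMSO). Secreted Aβ40 quantified by sandwich ELISA (pAb40 capture, biotinylated 6E10 detection, europium time-resolved fluorescence), with IC50 derived from percent inhibition versus concentration.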
On the technique in general: In an ELISA, binding on a coated surface is turned into a signal by an enzyme label.

[3] abbreviates: Table II, Aβ40, 24 h incubation.
The mark [4] stands for this setting: in vitro BACE FRET enzyme assay, IC50 class symbols.
Where [5] appears, read: HEK cell-based assay, Aβ40 in conditioned medium, IC50 class symbols.

Bounds are passed on as bounds.

T1 sequence (P56817 46-501, species assumed): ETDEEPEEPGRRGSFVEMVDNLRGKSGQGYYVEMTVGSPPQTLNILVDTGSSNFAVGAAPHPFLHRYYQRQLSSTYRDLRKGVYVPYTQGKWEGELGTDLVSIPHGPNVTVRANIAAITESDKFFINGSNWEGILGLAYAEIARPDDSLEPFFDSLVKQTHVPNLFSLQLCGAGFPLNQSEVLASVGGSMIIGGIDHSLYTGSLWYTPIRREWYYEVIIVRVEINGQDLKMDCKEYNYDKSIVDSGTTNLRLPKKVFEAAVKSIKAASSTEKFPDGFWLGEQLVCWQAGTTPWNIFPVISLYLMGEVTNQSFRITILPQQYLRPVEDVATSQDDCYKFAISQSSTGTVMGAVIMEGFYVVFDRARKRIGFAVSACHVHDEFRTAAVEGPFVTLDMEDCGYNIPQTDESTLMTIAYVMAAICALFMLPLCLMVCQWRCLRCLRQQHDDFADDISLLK

With `Cc1csc(-c2ccc3c(c2)[C@]2(COC(N)=N2)c2cc(-c4cccnc4)ccc2O3)c1` [compound 726], the IC50 at BACE1 [1] was below 0.1 µM; at BACE1 [2], 0.1 to 1 µM.
Consider `NC1=N[C@]2(CO1)c1cc(OCC3CCCC3)ccc1Oc1ccc(-c3cncnc3)cc12` [Example 74, (4S)-2′-(cyclopentylmethoxy)-7′-(5-pyrimidinyl)spiro[1,3-oxazole-4,9′-xanthen]-2-amine], for which the IC50 at BACE1 [1] (Table II) and at BACE1 [2] (setting [3]) was below 0.1 µM in each case.
Turning to `COc1ncc(-c2ccc3c(c2)[C@]2(COC(N)=N2)c2cc(OCC(C)(C)C)ccc2O3)cn1` [compound 188], the IC50 at BACE1 [1] (Table III, IC50's in uM ranges) lay in the range of 0.1 to 1 µM; on BACE1 [2] (Table III, IC50's in uM ranges), 1 to 5 µM.
Turning to `COc1ncccc1-c1ccc2c(c1)[C@@]1(COC(N)=N1)c1cc(OCC(C)(C)C)ccc1O2` [Example 77, (4S)-2′-(2,2-dimethylpropoxy)-7′-(2-methoxy-3-pyridinyl)spiro[1,3-oxazole-4,9′-xanthen]-2-amine], the IC50 at BACE1 [1] (Table II) is below 0.1 µM; on BACE1 [2] (setting [3]), 1 to 5 µM.
As to `COc1ccc2c(c1)C1(COC(N)=N1)c1cc(-c3cccnc3Cl)ccc1O2` (centres unmarked) [Example 21, 2′-(2-chloro-3-pyridinyl)-7′-methoxyspiro[1,3-oxazole-4,9′-xanthen]-2-amine trifluoroacetic acid], the IC50 on BACE1 [1] (Table 1) was 1 to 5 µM; at BACE1 [2] (Table 1, Aβ40, 24 h incubation), above 5 µM.
As to `Cc1ccc(-c2cnc3c(c2)[C@]2(COC(N)=N2)c2cc(C#CC(C)(C)O)ccc2O3)cc1` [compound 579], the IC50 at BACE1 [1] (Table IV, class symbols) was below 0.1 µM; on BACE1 [2] (Table IV, class symbols), below 0.1 µM.
Turning to `CC(C)(C)COc1ccc2c(c1)[C@]1(COC(N)=N1)c1cc(-c3cc(Cl)ccc3F)cnc1O2` [Example 69, (5R)-3-(5-chloro-2-fluorophenyl)-7-(2,2-dimethylpropoxy)spiro[chromeno[2,3-b]pyridine-5,4′-[1,3]oxazol]-2′-amine], the IC50 on BACE1 [1] (Table II) is below 0.1 µM; at BACE1 [2] (setting [3]) it was 1 to 5 µM.
For `CC1CCN(c2cc3c(cn2)Oc2ccc(-c4cccnc4)cc2[C@@]32COC(N)=N2)CC1` [compound 441], the IC50 on BACE1 [1] and at BACE1 [2] (HEK cells) was below 0.1 µM in each case.
As to `CC(C)CCCOc1nccc2c1[C@]1(COC(N)=N1)c1cc(-c3cccnc3)ccc1O2` [compound 842], the IC50 on BACE1 [1] (Table IV, class symbols) is 0.1 to 1 µM; at BACE1 [2] (Table IV, class symbols) it was 0.1 to 1 µM.
Turning to `NC1=N[C@]2(CO1)c1cc(C3=CCOC3)ccc1Oc1ccc(-c3cncnc3)cc12` [compound 448], the IC50 at BACE1 [1] and at BACE1 [2] (HEK cells) was below 0.1 µM in each case.
On to `COC(C)(C)C#Cc1cc(F)c2c(c1)[C@@]1(COC(N)=N1)c1cc(-c3cncnc3)ccc1O2` [compound 674], for which the IC50 on BACE1 [1] lay in the range of 0.1 to 1 µM; on BACE1 [2] it was 1 to 5 µM.
As to `NC1=N[C@@]2(CO1)c1cc(-c3cccnc3)ccc1Oc1ccc(Cl)nc12` [compound 393], the IC50 lay in the range of 0.1 to 1 µM at BACE1 [1] (setting [4]) and 1 to 5 µM at BACE1 [2] (setting [5]).
With `Cc1cncc(-c2ccc3c(c2)[C@@]2(COC(N)=N2)c2cc(OCC(C)(C)C)ccc2O3)c1` [Example 81, (4S)-2′-(2,2-dimethylpropoxy)-7′-(5-methyl-3-pyridinyl)spiro[1,3-oxazole-4,9′-xanthen]-2-amine], the IC50 at BACE1 [1] (Table II) and on BACE1 [2] (setting [3]) was below 0.1 µM throughout.
In the case of `NC1=N[C@@]2(CO1)c1cc(-c3cccnc3)ccc1Oc1cc(F)c(C3=CCOCC3)cc12` [compound 476], the IC50 at BACE1 [1] and on BACE1 [2] (HEK cells) was below 0.1 µM each time.
For the molecule `CC(C)(C)/C=C/c1cnc2c(c1)[C@]1(COC(N)=N1)c1cc(-c3cccnc3F)ccc1O2` [compound 380], the IC50 on BACE1 [1] (setting [4]) and on BACE1 [2] (setting [5]) was below 0.1 µM throughout.
`NC1=N[C@@]2(CS1)c1cc(Cl)ccc1Oc1ccc(-c3cncnc3)cc12` [Example 39, (4R)-2′-chloro-7′-(5-pyrimidinyl)spiro[1,3-thiazole-4,9′-xanthen]-2-amine]: the IC50 on BACE1 [1] (Table II) is 0.1 to 1 µM; on BACE1 [2] (setting [3]), above 5 µM.
In the case of `Cn1cc(-c2ccc3c(c2)[C@]2(COC(N)=N2)c2cc(Br)ccc2O3)cn1` [compound 638], the IC50 was in the range of 0.1 to 1 µM on BACE1 [1] (Table IV, class symbols) and 1 to 5 µM on BACE1 [2] (Table IV, class symbols).
Taken in the same sequence, the figures for `NC1=N[C@@]2(CO1)c1cc(-c3cccnc3)ccc1Oc1ccc(-c3cncs3)cc12` [compound 660] were below 0.1 µM and below 0.1 µM.
Consider `NC1=N[C@@]2(CO1)c1cc(-c3cccnc3)ccc1Oc1ccc(-c3csc(N4CCCC4)n3)cc12` [compound 624], for which the IC50 on BACE1 [1] (Table IV, class symbols) was in the range of 0.1 to 1 µM; at BACE1 [2] (Table IV, class symbols) it was 1 to 5 µM.
Take `CC(C)(C)CCOc1nccc2c1[C@@]1(COC(N)=N1)c1cc(-c3cccnc3)ccc1O2` [compound 931]: the IC50 on BACE1 [1] is 1 to 5 µM; on BACE1 [2] it was above 5 µM.
As for `Cn1cc(-c2cc(F)c3c(c2)[C@]2(COC(N)=N2)c2cc(-c4cncnc4)ccc2O3)cn1` [compound 511], the IC50 at BACE1 [1] and at BACE1 [2] (HEK cells) was below 0.1 µM throughout.
On to `CC(C)(C)COc1ccc2c(c1)[C@]1(COC(N)=N1)c1cc(-c3ccc(S(C)(=O)=O)cc3)ccc1O2` [compound 910], for which the IC50 at BACE1 [1] (Table IV, class symbols) fell in the range of 1 to 5 µM; on BACE1 [2] (Table IV, class symbols), 1 to 5 µM.
Turning to `CC(C)(C)COc1ccc2c(c1)[C@@]1(COC(N)=N1)c1cc(-c3cnc4ccccn34)ccc1O2` [compound 192], the IC50 on BACE1 [1] (Table III, IC50's in uM ranges) was 1 to 5 µM; on BACE1 [2] (Table III, IC50's in uM ranges) it was above 5 µM.
The corresponding values for `CC(C)(C)COc1ccc2c(c1)[C@@]1(COC(N)=N1)c1cc(-c3ccc(C#N)cc3)ccc1O2` [Example 128, (R)-4-(2-amino-2′-(neopentyloxy)-5H-spiro[oxazole-4,9′-xanthene]-7′-yl)benzonitrile] are below 0.1 µM and 0.1 to 1 µM.
Consider `COc1ccc2c(c1)[C@]1(COC(N)=N1)c1cc(C3=CCOCC3)cc(F)c1O2` [compound 363], for which the IC50 on BACE1 [1] (setting [4]) and at BACE1 [2] (setting [5]) was above 5 µM in each case.
In the case of `Cn1cc(-c2ccc3c(c2)[C@]2(COC(N)=N2)c2cc(-c4cccnc4)ccc2O3)cn1` [compound 710], the IC50 on BACE1 [1] and at BACE1 [2] was below 0.1 µM each time.
As for `NC1=N[C@@]2(CO1)c1cc(-c3cccnc3)ccc1Oc1cnc(-c3cccnc3)cc12` [compound 184], the IC50 on BACE1 [1] (Table III, IC50's in uM ranges) is below 0.1 µM; at BACE1 [2] (Table III, IC50's in uM ranges), below 0.1 µM.
Consider `NC1=N[C@]2(CO1)c1cc(Br)ccc1Oc1cnc(Cl)cc12` [compound 549], for which the IC50 at BACE1 [1] (Table IV, class symbols) was above 5 µM; on BACE1 [2] (Table IV, class symbols) it was above 5 µM.
As for `COc1ccc(-c2ccc3c(c2)[C@@]2(COC(N)=N2)c2cc(OCC(C)(C)C)ccc2O3)c(OC)n1` [compound 909], the IC50 at BACE1 [1] (Table IV, class symbols) was 0.1 to 1 µM; on BACE1 [2] (Table IV, class symbols), above 5 µM.
On to `CC(C)(C)COc1ccc2c(n1)[C@]1(COC(N)=N1)c1cc(-c3cncnc3)ccc1O2` [compound 733], for which the IC50 on BACE1 [1] and at BACE1 [2] was below 0.1 µM throughout.
Take `NC1=N[C@@]2(CO1)c1cc(-c3cncc(F)c3)ccc1Oc1cnc(C3CCOCC3)cc12` [compound 331]: the IC50 at BACE1 [1] (setting [4]) and on BACE1 [2] (setting [5]) was below 0.1 µM in each case.
For the molecule `CC(=O)COc1ccc2c(c1)[C@]1(COC(N)=N1)c1cc(-c3cccnc3)ccc1O2` [compound 923], the IC50 on BACE1 [1] (Table IV, class symbols) is below 0.1 µM; at BACE1 [2] (Table IV, class symbols), below 0.1 µM.
As for `COc1cc(F)c2c(c1)[C@@]1(COC(N)=N1)c1cc(-c3cncnc3)ccc1O2` [compound 582], the IC50 at BACE1 [1] (Table IV, class symbols) was 1 to 5 µM; on BACE1 [2] (Table IV, class symbols), above 5 µM.
Taken in the same sequence, the figures for `COC(C)(C)C#Cc1cnc2c(c1)[C@]1(COC(N)=N1)c1cc(-c3cncnc3)ccc1O2` [compound 822] were below 0.1 µM and below 0.1 µM.
`CCCOc1ccc2c(c1)C1(COC(N)=N1)c1cc(-c3cncnc3)ccc1O2` (centres unmarked) [Example 9, 2′-propoxy-7′-(5-pyrimidinyl)spiro[1,3-oxazole-4,9′-xanthen]-2-amine]: the IC50 at BACE1 [1] (Table 1) was below 0.1 µM; on BACE1 [2] (Table 1, Aβ40, 24 h incubation), 0.1 to 1 µM.
With `NC1=N[C@]2(CO1)c1cc(OCC3CCCO3)ccc1Oc1ccc(-c3cncnc3)cc12` (stereo partly drawn) [Example 60, (4S)-2′-(5-pyrimidinyl)-7′-(tetrahydro-2-furanylmethoxy)spiro[1,3-oxazole-4,9′-xanthen]-2-amine], the IC50 on BACE1 [1] (Table II) and at BACE1 [2] (setting [3]) was below 0.1 µM throughout.
Turning to `COc1ccc2c(c1)[C@]1(COC(N)=N1)c1cc(NC(=O)C3CCCO3)ccc1O2` (some centres unmarked) [compound 614], the IC50 lay within 0.1 to 1 µM at BACE1 [1] (Table IV, class symbols) and 0.1 to 1 µM at BACE1 [2] (Table IV, class symbols).
Regarding `CC(=O)/C=C/c1ccc2c(c1)[C@]1(COC(N)=N1)c1cc(-c3cncnc3)ccc1O2` [compound 857], the IC50 was below 0.1 µM at BACE1 [1] (Table IV, class symbols) and 0.1 to 1 µM on BACE1 [2] (Table IV, class symbols).
Consider `NC1=NC2(CO1)c1cnc(Cl)cc1Oc1ccc(-c3cncnc3)cc12` (centres unmarked) [compound 852], for which the IC50 at BACE1 [1] (Table IV, class symbols) was 1 to 5 µM; on BACE1 [2] (Table IV, class symbols) it was above 5 µM.
Taken in the same sequence, the figures for `COc1ncccc1-c1ccc2c(c1)[C@@]1(COC(N)=N1)c1cc(C#CC(C)(C)OC)cnc1O2` [compound 806] were below 0.1 µM and below 0.1 µM.
On to `COc1ccc2c(c1)[C@@]1(COC(N)=N1)c1cc(-c3cccnc3)cnc1O2` [compound 670], for which the IC50 lay within 0.1 to 1 µM at BACE1 [1] and 1 to 5 µM on BACE1 [2].
Consider `C[C@@H]1CN(c2cc(F)c3c(c2)[C@]2(COC(N)=N2)c2cc(-c4cncnc4)ccc2O3)C[C@H](C)O1` [compound 501], for which the IC50 at BACE1 [1] and at BACE1 [2] (HEK cells) was below 0.1 µM in each case.
In the case of `C=C(C)COc1ccc2c(c1)[C@]1(COC(N)=N1)c1cc(-c3cncnc3)ccc1O2` [compound 139], the IC50 at BACE1 [1] (Table III, IC50's in uM ranges) was below 0.1 µM; at BACE1 [2] (Table III, IC50's in uM ranges) it was below 0.1 µM.
